Experiment: Solubility of photoacid generator compounds in cyclohexanone
Format: physicochemical
Conditions: cyclohexanone as solvent, with stirring; lower amount = better solubility
Protocol: In order to determine the solubility of photoacid generator compounds of the present invention, to a weighed amount of the compound to be tested is added cyclohexanone as the solvent with stirring. Determined is the amount of cyclohexanone needed to completely dissolve the photoacid generator compound. […]

Solvent needed to completely dissolve 10 g of the compound: 24 mL
Structure (SMILES): CC12CCC(C(=O)OCC(F)C(F)(F)S(=O)(=O)O)(OC1=O)C2(C)C (stereo not shown) [Example 57]

Reference: patent US8580478B2, “Latent acids and their use” (BASF SE, priority 2010, dated 2013)
